Measurements published in ChEMBL document CHEMBL1143167, “Monoaryl-substituted salicylaldoximes as ligands for estrogen receptor beta” (J Med Chem, 2008).

Tests used:
[1] = target: T1, Estrogen receptor (Homo sapiens) (UniProt P03372); assay: Displacement of [3H]estradiol from purified full length human ERalpha receptor relative to estradiol
T1 sequence (whole entry): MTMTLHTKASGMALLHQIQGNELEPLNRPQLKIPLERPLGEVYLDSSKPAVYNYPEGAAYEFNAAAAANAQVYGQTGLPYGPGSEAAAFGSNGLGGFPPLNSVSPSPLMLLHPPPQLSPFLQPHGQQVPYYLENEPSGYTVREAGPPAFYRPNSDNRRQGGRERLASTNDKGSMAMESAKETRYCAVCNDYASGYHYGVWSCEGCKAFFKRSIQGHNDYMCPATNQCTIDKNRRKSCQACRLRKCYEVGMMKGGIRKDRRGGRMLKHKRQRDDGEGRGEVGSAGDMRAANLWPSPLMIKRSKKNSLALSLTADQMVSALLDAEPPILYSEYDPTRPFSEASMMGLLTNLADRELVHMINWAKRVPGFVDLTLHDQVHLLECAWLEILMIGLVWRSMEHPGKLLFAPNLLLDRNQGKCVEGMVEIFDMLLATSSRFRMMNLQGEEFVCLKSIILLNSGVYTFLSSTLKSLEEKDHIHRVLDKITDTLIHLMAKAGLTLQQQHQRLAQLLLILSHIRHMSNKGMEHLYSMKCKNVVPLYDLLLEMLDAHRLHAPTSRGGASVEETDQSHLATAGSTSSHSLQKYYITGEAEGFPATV

[2] = target: Estrogen receptor beta (Homo sapiens) (UniProt Q92731); assay: Displacement of [3H]estradiol from purified full length human ERbeta receptor relative to estradiol
Estrogen receptor beta (Homo sapiens), sequence (Q92731 whole entry): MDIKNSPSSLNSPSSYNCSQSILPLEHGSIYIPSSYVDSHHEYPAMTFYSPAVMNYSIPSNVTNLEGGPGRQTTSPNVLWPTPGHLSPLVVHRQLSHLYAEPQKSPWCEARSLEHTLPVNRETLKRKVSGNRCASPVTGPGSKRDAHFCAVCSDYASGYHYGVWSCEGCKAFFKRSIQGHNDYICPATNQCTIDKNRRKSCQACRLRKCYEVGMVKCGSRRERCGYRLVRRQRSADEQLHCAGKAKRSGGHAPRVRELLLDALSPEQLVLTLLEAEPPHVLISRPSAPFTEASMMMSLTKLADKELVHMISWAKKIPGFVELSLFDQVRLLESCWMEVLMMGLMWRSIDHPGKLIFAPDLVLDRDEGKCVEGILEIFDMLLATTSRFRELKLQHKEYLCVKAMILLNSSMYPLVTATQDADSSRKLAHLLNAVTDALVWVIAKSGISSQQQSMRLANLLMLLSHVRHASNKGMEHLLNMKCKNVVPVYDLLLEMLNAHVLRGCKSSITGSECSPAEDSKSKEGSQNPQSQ

Homo sapiens = species on record: Homo sapiens; assay: Selectivity ratio of human ERbeta receptor over human ERalpha receptor

Row | Compound | RBA [1] | RBA [2] | Ratio (Homo sapiens)
1 | COc1ccc(-c2ccc(/C=N/O)c(O)c2C)cc1 | 0.005% | 0.007% | –
2 | N#Cc1c(-c2ccc(O)cc2)ccc(/C=N/O)c1O | 0.004% | 0.078% | 20
3 | Cc1c(-c2ccc(O)cc2)ccc(/C=N/O)c1O | 0.249% | 4.1% | 16
4 | O/N=C/c1ccc(-c2ccccc2)cc1O | < 0.004% | < 0.004% | –

Now from value to compound:

Row | RBA [1] | RBA [2] | Ratio (Homo sapiens) | Compound
5 | 0.007% | 0.553% | 79 | O/N=C/c1ccc(-c2ccc(O)cc2)cc1O
6 | 0.01% | < 0.004% | – | COc1ccc(-c2ccc(/C=N/O)c(O)c2)cc1
